The text below walks through data of PubChem BioAssay (NCI).

Test in all cases: NCI anticancer screen, dose series, 48 h
The test system of assay [1] is SNB-78 CNS.
The test system of assay [2] is IGROV1 ovarian.
Assay [3] has as its system NCI-H23 lung.
Assay [4] concerns U251 CNS.
Assay [5] deals with 786-0 renal.
Assay [6] concerns DMS 273 small cell lung.
In assay [7] the test system is HOP-18 NSCLC.
Assay [8] deals with NCI-H522 lung.
Assay [9] concerns CCRF-CEM leukemia.
For assay [10], the system named is RXF 393 renal.

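Exposure lasted 48 hours, with cells grown in 96-well plates and compounds tested at five concentrations. GI50: concentration for 50% inhibition of growth. TGI: concentration producing complete growth inhibition.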

Consider `COc1ccc(-c2c(N)[n+]([O-])c3ccccc3[n+]2[O-])cc1OC`, for which the TGI in assay [1], in [2], in [3], in assay [4], in [5] and in [6] was greater than 100 µM throughout. The TGI in assay [7] and in assay [8] was greater than 100 µM throughout.
Consider `CCC(C(=O)c1ccccc1)C(CCCC(=O)Nc1c(C)cccc1C)N=O` (centres undefined), for which the TGI in [1], in assay [2], in assay [3], in [4], in assay [9] and in [5] was greater than 100 µM each time. Further, the TGI in assay [6], in assay [7] and in assay [8] was greater than 100 µM throughout.
`N#CC1C2CCC3(CC2CCN1C(=O)c1ccccc1)OCCO3` (centres undefined): the TGI in [1], in assay [2], in [10], in assay [3], in assay [4] and in assay [9] was greater than 100 µM in each case. In addition, the TGI in assay [5], in assay [6] and in [7] was greater than 100 µM each time.
Turning to `CC1(C)CC(Nc2ccc(Nc3ccccc3)cc2)CC(C)(C)N1`, the TGI is greater than 100 µM in assay [1]; 78.6 µM in assay [2]; 47.5 µM in assay [10]; 63.7 µM in assay [3]; 40.1 µM in assay [4]; 29.9 µM in [9]. In addition, the TGI in [5] is 49.2 µM; in assay [6], greater than 100 µM; in assay [7] it was greater than 100 µM; in assay [8], 26.6 µM.
With `CC1(O)CCC2(C#N)CCC1C2O` (centres undefined), the TGI in assay [1], in assay [2], in assay [10], in [4], in assay [9] and in assay [5] was greater than 100 µM each time. In addition, the TGI in [6], in [7] and in assay [8] was greater than 100 µM throughout.
For the compound `N#C/C(=C\c1ccc(C(O)P(=O)(O)O)cc1)C(N)=O` (centres undefined), the TGI in assay [1], in assay [2], in assay [3], in [4], in assay [9] and in [5] was greater than 100 µM in each case. The TGI in [6], in assay [7] and in assay [8] was greater than 100 µM in each case.
For the compound `CC/C=C/c1cc2cc[nH]c2c2c1C(C)C[C@@H]2C` (some centres undefined), the TGI in assay [1] is 67 µM; in [2], greater than 100 µM; in assay [10], 41.3 µM; in [3], 58.6 µM; in [4], 51.2 µM; in assay [9] it was 61.9 µM. For the same compound, the figures for the TGI in [5], in assay [7] and in assay [8] were 36.4 µM, 73.7 µM and 40.4 µM, respectively.
Turning to `NS(=O)(=O)c1ccc(NC(=O)c2cccc3cc4ccccc4nc23)cc1`, the TGI in [1], in assay [2], in assay [10], in [3], in assay [4] and in assay [9] was greater than 100 µM each time. The TGI in [5], in assay [6], in [7] and in assay [8] was greater than 100 µM in each case.
As for `COc1cc2c(c(OC)c1OC)-c1ccc(OC)c(=O)cc1[C@@H](N(C)C=O)CC2`, the TGI in assay [1] is greater than 100 µM; in assay [2], greater than 100 µM; in assay [3], greater than 100 µM; in assay [4] it was greater than 4.68 µM; in [9], greater than 100 µM; in assay [5], greater than 100 µM. Besides, the TGI was greater than 100 µM in [6], greater than 100 µM in assay [7] and 0.0438 µM in assay [8].
In the case of `Cc1c2c(cc3c(=O)ccn(CCN(C)C)c13)c(=O)ccn2CCN(C)C`, the TGI was greater than 100 µM in [1]; 37 µM in [2]; 28.9 µM in assay [10]; 33.9 µM in assay [3]; 23 µM in assay [4]; 27.9 µM in assay [9]. Moreover, the TGI in assay [5] was 17.5 µM; in assay [6] it was 16.3 µM; in assay [7] it was 58.6 µM; in assay [8] it was 21.1 µM.
As for `COc1cc(/C=C(\OC(C)=O)c2ccc3c(c2)OCO3)cc(OC)c1OC`, the TGI in assay [1] was 91.9 µM; in assay [2], 33.1 µM; in [10], greater than 100 µM; in assay [3], 35.4 µM; in assay [4] it was 47.4 µM; in assay [9], greater than 100 µM. Further, the TGI in assay [5] was greater than 100 µM; in assay [6], 33.6 µM; in assay [7], greater than 100 µM; in assay [8] it was 50.2 µM.
For `CS(=O)(=O)OCCN(CCOS(C)(=O)=O)c1ccc(C=O)cc1`, the TGI in [1] was greater than 100 µM; in assay [2], 43.3 µM; in assay [10], 1.72 µM; in assay [3] it was 12.6 µM; in assay [4], 45.7 µM; in assay [9], 46.2 µM. In addition, the TGI stood at 7.86 µM in assay [5], 13.5 µM in [6], 48.8 µM in [7] and 0.553 µM in [8].
Consider `C=C1C(=O)OC2CC(C)C3C=CC(=O)C3CC12` (centres undefined), for which the TGI is 19.2 µM in [1]; 13.2 µM in assay [2]; 3.03 µM in assay [10]; 4.03 µM in assay [3]; 20.6 µM in assay [4]; 5.14 µM in [9]. The TGI turned out to be 3.66 µM in [5], 12.2 µM in [6], 16.9 µM in assay [7] and 1.95 µM in assay [8].
Consider `Cc1ccc2c(c1)CNc1ccc(C)cc1CN2`, for which the TGI in assay [1], in [2], in assay [3], in assay [4], in assay [9] and in [5] was greater than 100 µM each time. Further, the TGI in [6], in [7] and in assay [8] was greater than 100 µM each time.
`NNC(=O)/C(NC(=O)c1ccccc1)=C(\N)c1ccc(Cl)cc1`: the TGI in [1], in assay [2], in [10], in [3], in assay [4] and in assay [9] was greater than 100 µM each time. In addition, the TGI in assay [5], in [6], in assay [7] and in assay [8] was greater than 100 µM throughout.
As for `C1COCCOCCOCCOCCO1.CC(=O)[CH-]C(C)=O.CC(=O)[CH-]C(C)=O.CC(=O)[CH-]C(C)=O.[V]`, the GI50 in assay [2] was 4.79 µM; in assay [10], 1.63 µM; in [3] it was 15.6 µM; in assay [4], 20.6 µM; in assay [9], 19.1 µM; in assay [5], 2.96 µM. Also, the GI50 is 15.7 µM in [6], 28.2 µM in assay [7] and 16.9 µM in [8]. Moreover, the TGI in assay [2] was 22.5 µM; in [10], 3.26 µM; in assay [3] it was 31.6 µM; in assay [4], 52.8 µM; in [9], 41.3 µM; in assay [5], 12.9 µM. Moreover, the TGI worked out at 34.8 µM in assay [6], 77.9 µM in [7] and 39 µM in [8].
Take `Cc1cccc(C)c1NC(=O)CCc1n[nH]c(=S)o1`: the TGI in assay [1], in assay [2], in assay [3], in assay [4], in assay [9] and in assay [5] was greater than 100 µM in each case. For the same compound, the TGI in [6], in assay [7] and in [8] was greater than 100 µM throughout.
For `S=c1nc(N2CCCCC2)ss1`, the TGI in assay [1] was 99.1 µM; in [2] it was 58.5 µM; in [10], 33.4 µM; in assay [3], greater than 100 µM; in [4], 38 µM; in [9], 46.4 µM. Also, the TGI in assay [5] worked out at 48.1 µM; in assay [6], 42.3 µM; in [7], 88.4 µM.
Regarding `CCOC(=O)/C(=C\c1ccc[nH]1)C(=O)c1ccccc1`, the TGI in assay [1], in assay [10], in assay [3], in assay [4], in [9] and in [5] was greater than 100 µM throughout. Also, the TGI in assay [6], in [7] and in assay [8] was greater than 100 µM throughout.
As to `CC(=O)/C=C/c1ccc(C)cc1`, the TGI in assay [1], in assay [2], in [10], in assay [3], in assay [4] and in [9] was greater than 100 µM each time. Besides, the TGI in [5], in assay [6], in assay [7] and in assay [8] was greater than 100 µM each time.
Consider `CC(C)CN(CC(C)C)C(=O)C1CCCC[C@@H]1C(=O)O` (some centres undefined), for which the TGI in assay [1], in assay [2], in assay [3], in assay [4], in [9] and in assay [5] was greater than 100 µM in each case. For the same compound, the TGI in [6], in assay [7] and in [8] was greater than 100 µM throughout.
For the compound `COc1cc2c(cn1)[nH]c1ccccc12`, the TGI in [1], in [2], in [3], in assay [4], in assay [9] and in assay [5] was greater than 100 µM throughout. The TGI in [6], in assay [7] and in assay [8] was greater than 100 µM throughout.
Regarding `Cc1c(N=Cc2ccc(N(CCC#N)CCC#N)cc2)c(=O)n(-c2ccccc2)n1C`, the TGI in assay [1] is greater than 100 µM; in assay [2], greater than 100 µM; in [10], 92.1 µM; in assay [3], greater than 100 µM; in assay [4], greater than 100 µM; in assay [9] it was greater than 100 µM. The TGI was 90.3 µM in assay [5], greater than 100 µM in assay [6], greater than 100 µM in [7] and greater than 100 µM in assay [8].
